According to patent publication US20230365673A1, “MEANS FOR REDUCING RADIO- AND CHEMOTHERAPY RESISTANCE AND ADVERSE EFFECTS” (JOHANN WOLFGANG GOETHE-UNIVERSITÄT FRANKFURT AM MAIN, priority 2020, published 2023):

Experiments:
colon fibroblasts = experiment: Nitrite concentration by Griess assay in fibroblast supernatants; assay type: cell-based, mouse; conditions: recombinant IL-1α 1 μg/mL, 72 hours
Experimental: (A) Schematic illustration of APTKA organoids supernatant collection and treatment of colon fibroblasts from unchallenged wildtype C57BL/6 mice for 12 h followed by 3×2 Gy irradiation. Microscopic, proteomic & transcriptomic analysis were performed 72 h post first irradiation. (B) Microscopic captures of non-irradiated wildtype (WT) and APTKA conditioned fibroblasts. Remaining captures belong to irradiated fibroblasts: WT, IL-1α (1 μg/mL) stimulated WT, and APTKA conditioned media minus or plus anakinra (20 μg/mL) treated fibroblasts. Scale bars=200 μm. (C) Mass spectrometric analysis of matrisome profiles of 3×2 Gy irradiated (n=8) and non-irradiated (n=8) APTKA conditioned fibroblasts. […] (G) Immunoblot analysis of untreated and irradiated APTKA conditioned fibroblasts. Representative results from one experiment which has been independently repeated 2 times. (H) SA-ß gal staining of untreated and irradiated APTKA fibroblasts. Scale bars=100 μm. (I and J) p21 and pH2AX immunofluorescent staining of untreated and irradiated APTKA fibroblasts. Scale bars=[…]. Data are mean±SD. ** […] and *** p<0.001 by t-test. (K) Nitrite concentration determined by Griess assay in conditioned media from WT, APTK media, APTKA media, IL-1α (1 μg/mL) stimulated and APTKA plus anakinra (20 μg/mL) treated fibroblasts for 72 h (n=10 independent wells per group). […]

human fibroblasts = experiment: Nitrite concentration by Griess assay in human fibroblast supernatants; assay type: cell-based; conditions: IL-1α 1 μg/mL only, 72 h
Source text: (A and B) Quantification of IL-1 and IL-1RA baseline serum levels in non-pCR (n=25) and pCR (n=7) patients before CRT. Data are mean±SD. ** p<0.01 by t-test. (C) IL-1RA serum level association with two SNPs: rs4251961 (T/C) and rs579543 (A/G) using DNA isolated from patients (n=31) pre-CRT peripheral blood mononuclear cells. Data are mean±SD. ** p=0.0052 by t-test. (D) Kaplan-Meier DFS curve of patients with high (n=37) and low (n=37) IL-1RN expression score (median split) based on the RNA sequencing data of pre-CRT biopsies. * p<0.05 by Log-rank (Mantel-Cox) test. […] (H) Paired analysis of sirius red staining of non-pCR patients (n=11) pre versus post-CRT. Scale bars=300 μm. (I) Paired quantification of p21 immunohistochemistry staining of non-pCR patients (n=10) pre versus post CRT. (J) Correlation analysis of pre-CRT serum IL-1RA levels with ratio of p21 induction (post/pre-CRT p21 RNA expression level) (n=10 non pCR patients). * p<0.05 by Spearman r correlation test. […] (M) Nitrite concentration determined by Griess assay in supernatants from WT, IL-1RA high & IL-1RA low conditioned media treated human fibroblasts for 72 h (n=13 independent wells per group). […] (N) Nitrite concentration determined by Griess assay in supernatants from untreated and IL-1α (1 μg/mL) stimulated human fibroblasts for 72 h (n=32 independent wells per group representing 3 independent experiments). […]

“recombinant IL-1α: recombinant cytokine used to stimulate fibroblasts” was tested, and the “nitrite levels in fibroblast supernatants” value (colon fibroblasts) was “significantly elevated” and the “nitrite production by fibroblasts” value (human fibroblasts) was “higher nitrite production by fibroblasts”.
